Test results published in US20250302983A1, “Saponin Conjugates” (priority 2018, published 2025).

Columns and labels:
[1] = system: SK-BR-3, JIMT-1, MDA-MB-468, A431, CaSki, HeLa, A2058; experiment: control treatments, relative cell viability on various cancer cell lines (FIG. 12); type: cell-based, human; conditions: wide range of concentrations toxin tested, up to 100.000 pM
[2] = system: HeLa cells; experiment: HeLa cell viability assay (MTS): SO1861 + dianthin-EGF with PAMAM, PAMAM-conjugates, G4-dendron or chloroquine; type: cell-based, human; conditions: positive control
Text: Whether or not a first proteinaceous molecule comprising saponins, either or not further comprising one or more (cleavable) linkers and/or optionally a scaffold, is able to disturb the acidic environment and […] the endosomal escape function of the at least one glycoside (saponin) can be easily determined with an assay as described in Example 3 and as known in the art. The inhibition is described as “fold amount increases of glycoside necessary to induced 50% cell killing”. […] The fold increase is to be measured in assay, essentially as described in Example 4, wherein Chloroquine, as a positive control, induces a 2-fold increase in glycoside amount, preferably saponin amount wherein the saponin is any one or more of the saponins of the invention (see Table A1, Scheme I, previous embodiments) to observe 50% cell killing.
HeLa cells were seeded in DMEM (PAN-Biotech GmbH) supplemented with 10% fetal bovine serum (PAN-Biotech GmbH) and 1% penicillin/streptomycin (PAN-Biotech GmbH), in a 96 well plate at 5,000 c/w in 100 μL/well and incubated overnight at 37° C. and 5% CO2. The next day 20× concentrated stocks of the PAMAM, PAMAM-conjugates, G4-dendron (prepared in Example 3) or chloroquine (Sigma Aldrich) samples were prepared in DMEM. […]

Compound	influence on cell viability [1]	fold increase in glycoside (saponin) amount to observe 50% cell killing [2] [fold]
saporin	do not or hardly have any influence on cell viability	
CCN(CC)CCCC(C)Nc1ccnc2cc(Cl)ccc12 (centres unmarked) [Chloroquine]		2
